Laboratory results taken from patent publication US10670605B2, “Cysteine reactive probes and uses thereof” (The Scripps Research Institute, priority 2015, dated 2020).
Where “and” joins values, the source holds several entries; their conditions need not be identical. Equal entries are not always repeated.

Assays:
Assay in all cases: Competitive isoTOP-ABPP, cell lysates
Format in all cases: binding
[1] = biological target: EZH2 C503 (Q15910) (Homo sapiens, UniProt Q15910); conditions: for isoTOP-ABPP reactivity profile ratio, Q15910_C503: in-vitro_ramos_231
[2] = biological target: T1, CYR61 C39 (O00622) (Homo sapiens, UniProt O00622); conditions: for R value (DMSO/fragment): in vitro, MDA-MB-231; for isoTOP-ABPP reactivity profile ratio, O00622_C39 / isoTOP-ABPP reactivity ratio, O00622_C39: 500 μm, in-vitro_ramos_231; for isoTOP-ABPP ratio (reactivity profile), O00622_C39: 500 μm in-vitro ramos_231; for isoTOP-ABPP ratio, O00622_C39: invitro, 231
T1 sequence (O00622 25-381): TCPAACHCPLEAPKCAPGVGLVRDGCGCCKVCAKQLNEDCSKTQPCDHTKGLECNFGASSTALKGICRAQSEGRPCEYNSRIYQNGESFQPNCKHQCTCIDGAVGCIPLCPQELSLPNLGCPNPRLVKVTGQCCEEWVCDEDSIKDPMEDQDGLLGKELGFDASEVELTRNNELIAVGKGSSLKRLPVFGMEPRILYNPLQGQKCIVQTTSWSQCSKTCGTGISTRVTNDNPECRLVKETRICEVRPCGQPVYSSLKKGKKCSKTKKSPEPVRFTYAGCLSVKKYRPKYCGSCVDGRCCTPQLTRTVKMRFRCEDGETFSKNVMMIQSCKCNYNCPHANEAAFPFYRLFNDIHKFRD

[3] = biological target: T2, USP28 C171 (Q96RU2) (Homo sapiens, UniProt Q96RU2); conditions: for isoTOP-ABPP ratio, Q96RU2_C171 / R value (DMSO/fragment): 500 μM, invitro
T2 sequence (Q96RU2 1-1077): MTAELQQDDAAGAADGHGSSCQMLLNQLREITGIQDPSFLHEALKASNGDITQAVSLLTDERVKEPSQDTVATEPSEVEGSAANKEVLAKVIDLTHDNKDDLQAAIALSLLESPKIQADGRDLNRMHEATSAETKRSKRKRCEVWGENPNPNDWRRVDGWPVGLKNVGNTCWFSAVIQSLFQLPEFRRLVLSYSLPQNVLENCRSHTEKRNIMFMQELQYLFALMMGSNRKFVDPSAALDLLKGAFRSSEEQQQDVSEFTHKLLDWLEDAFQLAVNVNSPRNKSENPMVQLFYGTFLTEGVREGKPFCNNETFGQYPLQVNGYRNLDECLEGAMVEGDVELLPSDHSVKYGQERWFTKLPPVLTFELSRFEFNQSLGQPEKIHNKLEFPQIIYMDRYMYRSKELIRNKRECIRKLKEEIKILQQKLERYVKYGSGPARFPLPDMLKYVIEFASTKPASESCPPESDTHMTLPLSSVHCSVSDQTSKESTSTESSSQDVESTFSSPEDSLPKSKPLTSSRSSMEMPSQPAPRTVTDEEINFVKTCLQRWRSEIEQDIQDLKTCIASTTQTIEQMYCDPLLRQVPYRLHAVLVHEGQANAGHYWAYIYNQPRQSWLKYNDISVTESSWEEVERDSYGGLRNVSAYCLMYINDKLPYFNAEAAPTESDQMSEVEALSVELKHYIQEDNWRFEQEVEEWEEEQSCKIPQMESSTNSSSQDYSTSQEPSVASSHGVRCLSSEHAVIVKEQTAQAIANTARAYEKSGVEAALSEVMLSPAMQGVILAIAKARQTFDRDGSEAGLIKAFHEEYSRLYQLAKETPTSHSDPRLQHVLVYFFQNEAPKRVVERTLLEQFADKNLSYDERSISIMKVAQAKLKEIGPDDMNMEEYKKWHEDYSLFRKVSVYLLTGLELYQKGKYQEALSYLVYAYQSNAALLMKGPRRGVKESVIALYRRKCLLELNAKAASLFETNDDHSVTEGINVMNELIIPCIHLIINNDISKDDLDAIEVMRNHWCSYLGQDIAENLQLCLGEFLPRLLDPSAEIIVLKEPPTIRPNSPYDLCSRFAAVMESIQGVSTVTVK

Sequence of EZH2 C503 (Q15910) (Q15910 whole entry, the tested form may be a part): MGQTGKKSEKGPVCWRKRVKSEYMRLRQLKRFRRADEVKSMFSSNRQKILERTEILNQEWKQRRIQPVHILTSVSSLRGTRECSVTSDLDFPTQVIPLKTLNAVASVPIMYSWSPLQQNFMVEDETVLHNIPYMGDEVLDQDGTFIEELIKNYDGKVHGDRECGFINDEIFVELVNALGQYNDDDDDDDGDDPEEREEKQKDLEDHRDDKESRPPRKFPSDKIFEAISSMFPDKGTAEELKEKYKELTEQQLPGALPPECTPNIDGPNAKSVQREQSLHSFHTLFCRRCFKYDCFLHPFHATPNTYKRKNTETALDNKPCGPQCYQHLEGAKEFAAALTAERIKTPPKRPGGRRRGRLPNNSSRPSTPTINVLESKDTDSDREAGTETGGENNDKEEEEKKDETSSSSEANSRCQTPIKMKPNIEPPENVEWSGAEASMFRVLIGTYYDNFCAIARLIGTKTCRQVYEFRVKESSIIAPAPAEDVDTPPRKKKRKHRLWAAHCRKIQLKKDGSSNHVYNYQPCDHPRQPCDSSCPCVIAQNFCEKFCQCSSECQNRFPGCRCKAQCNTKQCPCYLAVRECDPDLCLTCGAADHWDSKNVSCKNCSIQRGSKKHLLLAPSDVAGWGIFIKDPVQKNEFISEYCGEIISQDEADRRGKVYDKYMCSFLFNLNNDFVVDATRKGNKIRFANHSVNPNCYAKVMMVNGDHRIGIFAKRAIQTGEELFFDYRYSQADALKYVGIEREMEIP
Sequence of EZH2 C503 (Q15910) (O75530 whole entry partner, the tested form may be a part): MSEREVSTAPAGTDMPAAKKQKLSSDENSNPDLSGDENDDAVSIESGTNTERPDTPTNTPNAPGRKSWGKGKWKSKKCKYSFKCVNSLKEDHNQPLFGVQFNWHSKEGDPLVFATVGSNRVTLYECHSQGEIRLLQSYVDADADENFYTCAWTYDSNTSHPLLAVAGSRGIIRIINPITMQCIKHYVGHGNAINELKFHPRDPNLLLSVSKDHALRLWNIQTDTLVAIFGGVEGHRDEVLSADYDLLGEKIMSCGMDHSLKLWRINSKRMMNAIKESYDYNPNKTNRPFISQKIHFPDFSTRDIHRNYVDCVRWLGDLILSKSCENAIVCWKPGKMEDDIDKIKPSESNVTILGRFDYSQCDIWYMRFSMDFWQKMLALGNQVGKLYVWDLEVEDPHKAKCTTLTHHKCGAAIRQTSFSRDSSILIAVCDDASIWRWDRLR
Sequence of EZH2 C503 (Q15910) (Q15022 whole entry partner, the tested form may be a part): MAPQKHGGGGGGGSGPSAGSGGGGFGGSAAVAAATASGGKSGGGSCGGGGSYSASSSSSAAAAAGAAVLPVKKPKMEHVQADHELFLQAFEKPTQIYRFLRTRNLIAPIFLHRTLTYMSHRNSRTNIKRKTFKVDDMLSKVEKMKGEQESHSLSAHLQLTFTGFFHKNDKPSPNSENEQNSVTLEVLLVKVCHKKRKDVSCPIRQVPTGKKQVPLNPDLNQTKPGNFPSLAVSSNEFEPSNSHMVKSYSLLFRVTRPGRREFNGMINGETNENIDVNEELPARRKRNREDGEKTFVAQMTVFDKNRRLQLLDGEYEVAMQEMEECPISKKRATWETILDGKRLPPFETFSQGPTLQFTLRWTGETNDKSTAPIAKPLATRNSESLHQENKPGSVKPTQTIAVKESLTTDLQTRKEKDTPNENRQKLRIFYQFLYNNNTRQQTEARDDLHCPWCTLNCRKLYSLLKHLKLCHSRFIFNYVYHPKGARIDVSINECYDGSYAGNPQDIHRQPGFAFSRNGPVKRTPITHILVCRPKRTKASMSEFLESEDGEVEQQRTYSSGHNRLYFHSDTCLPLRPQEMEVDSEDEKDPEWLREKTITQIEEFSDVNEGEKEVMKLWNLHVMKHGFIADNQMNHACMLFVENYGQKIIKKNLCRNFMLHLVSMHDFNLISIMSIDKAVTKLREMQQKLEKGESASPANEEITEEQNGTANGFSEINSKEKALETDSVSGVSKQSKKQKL

COc1ccc(C2CC(c3cccs3)=NN2C(=O)CCl)cc1 (stereo not drawn) [compound 4]
R value (DMSO/fragment) ([1]; 250 μM, in vitro, Ramos): 1.5
R value (DMSO/fragment) ([2]; 250 μM): 2.8

O=C(CCl)N1CCN(S(=O)(=O)c2ccccc2F)CC1 [compound 10]
isoTOP-ABPP ratio, Q96RU2_C171 [3]; 231: 1.4

O=C(CCl)N1CCc2cc(Br)ccc21 [compound 50]
isoTOP-ABPP reactivity profile ratio, O00622_C39 [2]: 2.3

O=C(CCl)N1CCN(CC(=O)N2CCOCC2)CC1 [compound 29]
isoTOP-ABPP ratio (reactivity profile), Q15910_C503 ([1]; 500 μm in-vitro ramos_231): 1.4

CC(C)CCOCCNC(=O)CCl [compound 27]
isoTOP-ABPP ratio (reactivity profile), O00622_C39 [2]: 1.0
isoTOP-ABPP ratio (reactivity profile), Q96RU2_C171 ([3]; 500 μm in-vitro ramos_231): 0.9 and 1.2

O=C(CCl)N1CCC(C(O)(c2ccccc2)c2ccccc2)CC1 [compound 20]
isoTOP-ABPP ratio (reactivity profile), Q96RU2_C171 ([3]; 500 μm in-vitro ramos): 2.4

N#C/C(=C\c1cc(C(F)(F)F)cc(C(F)(F)F)c1)C(N)=O [compound 23]
isoTOP-ABPP ratio (reactivity profile), Q15910_C503 ([1]; 500 μm in-vitro ramos): 2.0
isoTOP-ABPP ratio (reactivity profile), O00622_C39 [2]: 4.4
isoTOP-ABPP ratio (reactivity profile), Q96RU2_C171 ([3]; 500 μm in-vitro ramos): 1.2

O=C(CCl)NC12CC3CC(CC(C3)C1)C2 [compound 21]
isoTOP-ABPP ratio (reactivity profile), Q96RU2_C171 ([3]; 500 μm in-vitro ramos_231): 1.1

CNS(=O)(=O)C=Cc1ccc2c(ccn2Cc2ccccc2)c1 [compound 6]
isoTOP-ABPP ratio, Q15910_C503 ([1]; 500 μM, invitro, 231): 1.8
isoTOP-ABPP ratio, Q96RU2_C171 [3]; 231: 0.8

COc1ccc2c(c1)CCCN2C(=O)CCl [compound 2]
R value (DMSO/fragment) ([1]; 500 μM, invitro, ramos): 2.8
R value (DMSO/fragment) ([3]; ramos): 1.1

Cn1cc(S(=O)(=O)N2CCOCC2)cc1C(=O)NC(=O)CCl [compound 11]
isoTOP-ABPP ratio, Q15910_C503 ([1]; 500 μM, invitro, ramos): 1.3
isoTOP-ABPP ratio, O00622_C39 ([2]; 500 μM): 9.6
isoTOP-ABPP ratio, Q96RU2_C171 [3]; 231: 20.0

COc1ccccc1OCCNC(=O)CCl [compound 28]
isoTOP-ABPP ratio (reactivity profile), O00622_C39 [2]: 1.0

C=CC(=O)N(Cc1cccnc1)c1ccc(Oc2ccccc2)c(C(F)(F)F)c1 [compound 15]
isoTOP-ABPP ratio, Q15910_C503 ([1]; 500 μM, invitro, 231): 0.8

O=C(CCl)NCCc1c[nH]c2ccccc12 [compound 13]
isoTOP-ABPP ratio, Q15910_C503 ([1]; 500 μM, invitro, ramos): 0.8
isoTOP-ABPP ratio, O00622_C39 ([2]; 500 μM): 1.2
isoTOP-ABPP ratio, Q96RU2_C171 ([3]; ramos): 2.4

CC(Br)C(=O)Nc1cc(C(F)(F)F)cc(C(F)(F)F)c1 (stereo not drawn) [compound 24]
isoTOP-ABPP ratio (reactivity profile), Q15910_C503 ([1]; 500 μm in-vitro ramos): 1.3

O=C(CCl)Nc1cc(C(F)(F)F)cc(C(F)(F)F)c1 [compound 3]
R value (DMSO/fragment) ([1]; 500 μM, invitro, ramos): 2.0
R value (DMSO/fragment) ([2]; 500 μM): 4.0
R value (DMSO/fragment) ([3]; ramos): 1.7

CC(C)(C)c1cc(NC(=O)CCl)on1 [compound 32]
isoTOP-ABPP reactivity ratio, Q15910_C503 ([1]; 500 μm, in-vitro_ramos): 1.7

COc1cc(NC(=O)CCl)cc(OC)c1 [compound 43]
isoTOP-ABPP reactivity profile ratio, Q15910_C503 ([1]; 500 μm): 20.0

C=CC(=O)N(c1ccccc1)c1ccc(Br)cc1 [compound 5]
isoTOP-ABPP ratio, Q15910_C503 ([1]; 500 μM, invitro, ramos): 20.0

O=C(CCl)Nc1ccc(-c2ccccc2)cc1 [compound 52]
isoTOP-ABPP reactivity profile ratio, Q15910_C503 ([1]; 500 μm): 0.9

C=CC(=O)Nc1cc(F)c(N2CCN(C(=O)OC(C)(C)C)CC2)c(F)c1 [compound 38]
isoTOP-ABPP reactivity ratio, O00622_C39 [2]: 0.8
isoTOP-ABPP reactivity ratio, Q96RU2_C171 ([3]; 500 μm, in-vitro_ramos_231): 3.3

C=CC(=O)N(Cc1cccnc1)c1cc(C(F)(F)F)cc(C(F)(F)F)c1 [compound 31]
isoTOP-ABPP reactivity ratio, O00622_C39 [2]: 1.2

C=CC(=O)N(c1ccccc1)C1CCCCC1 [compound 46]
isoTOP-ABPP reactivity profile ratio, O00622_C39 [2]: 1.9
isoTOP-ABPP reactivity profile ratio, Q96RU2_C171 ([3]; 500 μm, in-vitro_ramos_231): 0.9

CC(Cl)C(=O)Nc1cc(C(F)(F)F)cc(C(F)(F)F)c1 (stereo not drawn) [compound 25]
isoTOP-ABPP ratio (reactivity profile), Q15910_C503 ([1]; 500 μm in-vitro ramos_231): 0.8
isoTOP-ABPP ratio (reactivity profile), O00622_C39 [2]: 1.0
